Values joined by “and” are separate entries in the source; they are usually repeats but may differ in a detail not shown here. Equal entries are not always repeated.
What was measured:
Test in all cases: microbe, parasite or virus in culture
[1] = test system: T1, Staphylococcus aureus PB1101; set-up: species or system Staphylococcus aureus clinical blood isolates and ATCC 29213; Broth microdilution MIC in cation-adjusted Mueller-Hinton broth with 50 ug/mL CaCl2, EUCAST reading, 37 C; settings: PB1101, 16 h, replicate MIC, MHB + 50 ug/mL CaCl2
T1 construct: PB1101
Method: (§1) MICs were measured in cation-adjusted Mueller-Hinton broth (MHB) supplemented with 50 μg/mL CaCl2 (MHB-Ca^2+) via broth microdilution in 96-well plates with an inoculum of ∼5 × 10^5 CFU per mL. Antibiotic test concentrations ranged from 0.0625 μg/mL to 32 μg/mL by 2-fold dilutions. Plates were incubated at 37°C for 16 h without shaking, and results were interpreted in accordance with European Committee on Antimicrobial Susceptibility Testing reading guidelines ([72]). S. aureus ATCC 29213 was used as a quality-control strain.

[2] = test system: T2, Staphylococcus aureus PB0804; set-up: species or system Staphylococcus aureus clinical blood isolates and ATCC 29213; Broth microdilution MIC in cation-adjusted Mueller-Hinton broth with 50 ug/mL CaCl2, EUCAST reading, 37 C; settings: PB0804, 16 h, replicate MIC, MHB + 50 ug/mL CaCl2
T2 construct: PB0804
Method: as §1

[3] = test system: T3, Staphylococcus aureus PB0102; set-up: species or system Staphylococcus aureus clinical blood isolates and ATCC 29213; Broth microdilution MIC in cation-adjusted Mueller-Hinton broth with 50 ug/mL CaCl2, EUCAST reading, 37 C; settings: PB0102, 16 h, replicate MIC, MHB + 50 ug/mL CaCl2
T3 construct: PB0102
Method: as §1

[4] = test system: T4, Staphylococcus aureus PB0610; set-up: species or system Staphylococcus aureus clinical blood isolates and ATCC 29213; Broth microdilution MIC in cation-adjusted Mueller-Hinton broth with 50 ug/mL CaCl2, EUCAST reading, 37 C; settings: PB0610, 16 h, replicate MIC, MHB + 50 ug/mL CaCl2
T4 construct: PB0610
Method: as §1

[5] = test system: T5, Staphylococcus aureus PB0702; set-up: species or system Staphylococcus aureus clinical blood isolates and ATCC 29213; Broth microdilution MIC in cation-adjusted Mueller-Hinton broth with 50 ug/mL CaCl2, EUCAST reading, 37 C; settings: PB0702, 16 h, replicate MIC, MHB + 50 ug/mL CaCl2
T5 construct: PB0702
Method: as §1

[6] = test system: T6, Staphylococcus aureus PB0411; set-up: species or system Staphylococcus aureus clinical blood isolates and ATCC 29213; Broth microdilution MIC in cation-adjusted Mueller-Hinton broth with 50 ug/mL CaCl2, EUCAST reading, 37 C; settings: PB0411, 16 h, replicate MIC, MHB + 50 ug/mL CaCl2
T6 construct: PB0411
Method: as §1

[7] = test system: T7, Staphylococcus aureus PB1509; set-up: Broth microdilution MIC in cation-adjusted MHB-Ca2+, growth inhibition per EUCAST reading; settings: PB1509, 16 h
T7 construct: PB1509
Method: (§2) MICs were measured in cation-adjusted Mueller-Hinton broth (MHB) supplemented with 50 μg/mL CaCl2 (MHB-Ca^2+) via broth microdilution in 96-well plates with an inoculum of ∼5 × 10^5 CFU per mL. Antibiotic test concentrations ranged from 0.0625 μg/mL to 32 μg/mL by 2-fold dilutions. Plates were incubated at 37°C for 16 h without shaking, and results were interpreted in accordance with European Committee on Antimicrobial Susceptibility Testing reading guidelines ([72]). S. aureus ATCC 29213 was used as a quality-control strain. TCA cycle defects have been shown previously to cause antibiotic tolerance in laboratory strains of methicillin-sensitive S. aureus (MSSA) ([13], [16]). […] To test this hypothesis, we complemented three of the clinical isolates harboring loss-of-function citZ mutations with either wild-type citZ (pOS1-citZ) or empty vector (pOS1) and then measured bacterial survival through time after exposure to ceftaroline, daptomycin, vancomycin, or the combination of daptomycin plus ceftaroline (Fig. 3). These antibiotics were chosen for their clinical relevance in the treatment of severe MRSA infection.

[8] = test system: T8, Staphylococcus aureus PB1103; set-up: Broth microdilution MIC in cation-adjusted MHB-Ca2+, growth inhibition per EUCAST reading; settings: PB1103, 16 h
T8 construct: PB1103
Method: as §2

[9] = test system: T9, Staphylococcus aureus PB0801; set-up: Broth microdilution MIC in cation-adjusted MHB-Ca2+, growth inhibition per EUCAST reading; settings: PB0801, 16 h
T9 construct: PB0801
Method: as §2

[10] = test system: T10, Staphylococcus aureus PB0903; set-up: Broth microdilution MIC in cation-adjusted MHB-Ca2+, growth inhibition per EUCAST reading; settings: PB0903, 16 h
T10 construct: PB0903
Method: as §2

[11] = test system: T11, Staphylococcus aureus PB0112; set-up: Broth microdilution MIC in cation-adjusted MHB-Ca2+, growth inhibition per EUCAST reading; settings: PB0112, 16 h
T11 construct: PB0112
Method: as §2

[12] = test system: T12, Staphylococcus aureus PB1505; set-up: Broth microdilution MIC in cation-adjusted MHB-Ca2+, growth inhibition per EUCAST reading; settings: PB1505, 16 h
T12 construct: PB1505
Method: as §2

[13] = test system: T13, Staphylococcus aureus PB0601; set-up: Broth microdilution MIC in cation-adjusted MHB-Ca2+, growth inhibition per EUCAST reading; settings: PB0601, 16 h
T13 construct: PB0601
Method: as §2

[14] = test system: T14, Staphylococcus aureus PB0203; set-up: Broth microdilution MIC in cation-adjusted MHB-Ca2+, growth inhibition per EUCAST reading; settings: PB0203, 16 h
T14 construct: PB0203
Method: as §2

[15] = test system: T15, Staphylococcus aureus PB0113; set-up: Broth microdilution MIC in cation-adjusted MHB-Ca2+, growth inhibition per EUCAST reading; settings: PB0113, 16 h
T15 construct: PB0113
Method: as §2

## CCO/N=C(\C(=O)N[C@@H]1C(=O)N2C(C(=O)[O-])=C(Sc3nc(-c4cc[n+](C)cc4)cs3)CS[C@H]12)c1nsc(N)n1 [Ceftaroline]
[1]
  MIC: 0.5 µg/mL
[2]
  MIC: 0.5 µg/mL
[3]
  MIC: 0.5 µg/mL
[4]
  MIC: 0.25 µg/mL
[5]
  MIC: 0.5 µg/mL
[6]
  MIC: 0.5 µg/mL
[7]; replicate 1
  MIC: 0.5 µg/mL
[7]; replicate 2
  MIC: 0.5 µg/mL
[8]; replicate 1
  MIC: 0.5 µg/mL
[8]; replicate 2
  MIC: 0.5 µg/mL
[9]; replicate 1
  MIC: 0.5 µg/mL
[9]; replicate 2
  MIC: 0.5 µg/mL
[10]; replicate 1
  MIC: 0.5 µg/mL
[10]; replicate 2
  MIC: 0.5 µg/mL
[11]; replicate 1
  MIC: 0.5 µg/mL
[11]; replicate 2
  MIC: 0.5 µg/mL
[12]; replicate 1
  MIC: 0.5 µg/mL
[12]; replicate 2
  MIC: 0.5 µg/mL
[13]; replicate 1
  MIC: 0.25 µg/mL
[13]; replicate 2
  MIC: 0.25 µg/mL
[14]; replicate 1
  MIC: 0.5 µg/mL
[14]; replicate 2
  MIC: 0.5 µg/mL
[15]; replicate 1
  MIC: 0.5 µg/mL
[15]; replicate 2
  MIC: 0.5 µg/mL

## CCCCCCCCCC(=O)N[C@@H](Cc1c[nH]c2ccccc12)C(=O)N[C@H](CC(N)=O)C(=O)N[C@@H](CC(=O)O)C(=O)N[C@@H]1C(=O)NCC(=O)N[C@@H](CCCN)C(=O)N[C@@H](CC(=O)O)C(=O)N[C@H](C)C(=O)N[C@@H](CC(=O)O)C(=O)NCC(=O)N[C@H](CO)C(=O)N[C@@H]([C@H](C)CC(=O)O)C(=O)N[C@@H](CC(=O)c2ccccc2N)C(=O)O[C@@H]1C [Daptomycin]
[1]
  MIC: 2 µg/mL
[2]
  MIC: 1 µg/mL
[3]
  MIC: 2 µg/mL
[4]
  MIC: 1 µg/mL
[5]
  MIC: 2 µg/mL
[6]
  MIC: 1 µg/mL
[7]; replicate 1
  MIC: 2 µg/mL
[7]; replicate 2
  MIC: 2 µg/mL
[8]; replicate 1
  MIC: 1 µg/mL
[8]; replicate 2
  MIC: 1 µg/mL
[9]; replicate 1
  MIC: 1 µg/mL
[9]; replicate 2
  MIC: 1 µg/mL
[10]; replicate 1
  MIC: 2 µg/mL
[10]; replicate 2
  MIC: 2 µg/mL
[11]; replicate 1
  MIC: 1 µg/mL
[11]; replicate 2
  MIC: 1 µg/mL
[12]; replicate 1
  MIC: 1 µg/mL
[12]; replicate 2
  MIC: 2 µg/mL
[13]; replicate 1
  MIC: 1 µg/mL
[13]; replicate 2
  MIC: 1 µg/mL
[14]; replicate 1
  MIC: 1 µg/mL
[14]; replicate 2
  MIC: 1 µg/mL
[15]; replicate 1
  MIC: 1 µg/mL
[15]; replicate 2
  MIC: 1 µg/mL

## CC(=O)NC[C@H]1CN(c2ccc(N3CCOCC3)c(F)c2)C(=O)O1 [Linezolid]
[1]
  MIC: 4 µg/mL
[2]
  MIC: 2 µg/mL
[3]
  MIC: 4 µg/mL
[4]
  MIC: 4 µg/mL
[5]
  MIC: 4 µg/mL
[6]
  MIC: 4 µg/mL
[7]; replicate 1
  MIC: 4 µg/mL
[7]; replicate 2
  MIC: 4 µg/mL
[8]; replicate 1
  MIC: 4 µg/mL
[8]; replicate 2
  MIC: 4 µg/mL
[9]; replicate 1
  MIC: 4 µg/mL
[9]; replicate 2
  MIC: 4 µg/mL
[10]; replicate 1
  MIC: 4 µg/mL
[10]; replicate 2
  MIC: 4 µg/mL
[11]; replicate 1
  MIC: 4 µg/mL
[11]; replicate 2
  MIC: 4 µg/mL
[12]; replicate 1
  MIC: 4 µg/mL
[12]; replicate 2
  MIC: 4 µg/mL
[13]; replicate 1
  MIC: 4 µg/mL
[13]; replicate 2
  MIC: 4 µg/mL
[14]; replicate 1
  MIC: 4 µg/mL
[14]; replicate 2
  MIC: 4 µg/mL
[15]; replicate 1
  MIC: 4 µg/mL
[15]; replicate 2
  MIC: 4 µg/mL

## CN[C@H](CC(C)C)C(=O)N[C@H]1C(=O)N[C@@H](CC(N)=O)C(=O)N[C@H]2C(=O)N[C@H]3C(=O)N[C@H](C(=O)N[C@H](C(=O)O)c4cc(O)cc(O)c4-c4cc3ccc4O)[C@H](O)c3ccc(c(Cl)c3)Oc3cc2cc(c3O[C@@H]2O[C@H](CO)[C@@H](O)[C@H](O)[C@H]2O[C@H]2C[C@](C)(N)[C@H](O)[C@H](C)O2)Oc2ccc(cc2Cl)[C@H]1O [Vancomycin]
[1]
  MIC: 2 µg/mL
[2]
  MIC: 2 µg/mL
[3]
  MIC: 2 µg/mL
[4]
  MIC: 2 µg/mL and 4 µg/mL
[5]
  MIC: 2 µg/mL
[6]
  MIC: 2 µg/mL
[7]; replicate 1
  MIC: 2 µg/mL
[7]; replicate 2
  MIC: 2 µg/mL
[8]; replicate 1
  MIC: 2 µg/mL
[8]; replicate 2
  MIC: 2 µg/mL
[9]; replicate 1
  MIC: 2 µg/mL
[9]; replicate 2
  MIC: 2 µg/mL
[10]; replicate 1
  MIC: 2 µg/mL
[10]; replicate 2
  MIC: 2 µg/mL
[11]; replicate 1
  MIC: 2 µg/mL
[11]; replicate 2
  MIC: 2 µg/mL
[12]; replicate 1
  MIC: 2 µg/mL
[12]; replicate 2
  MIC: 2 µg/mL
[13]; replicate 1
  MIC: 2 µg/mL
[13]; replicate 2
  MIC: 2 µg/mL
[14]; replicate 1
  MIC: 2 µg/mL
[14]; replicate 2
  MIC: 2 µg/mL
[15]; replicate 1
  MIC: 2 µg/mL
[15]; replicate 2
  MIC: 2 µg/mL

— publication PMC9022596, “Convergent Evolution of Antibiotic Tolerance in Patients with Persistent Methicillin-Resistant Staphylococcus aureus Bacteremia” (Infection and Immunity, 2022)
